Our source for the MIC values is ChEMBL document CHEMBL1142033, “Synthesis of isonicotinic acid N'-arylidene-N-[2-oxo-2-(4-aryl-piperazin-1-yl)-ethyl]-hydrazides as antituberculosis agents” (2005).

What all share (assay type): functional
The subject of assay [1] is Mycobacterium tuberculosis. In words: Minimum inhibitory concentration against resistant Mycobacterium tuberculosis clinical isolates; N=9; Range=2-16.
The subject of assay [2] is Mycobacterium tuberculosis. In words: Minimum inhibitory concentration against resistant Mycobacterium tuberculosis clinical isolates; N=9.
Assay [3] deals with Mycobacterium tuberculosis. In words: Minimum inhibitory concentration against resistant Mycobacterium tuberculosis clinical isolates; N=9; Range=8-16.
Assay [4] has as its system Mycobacterium tuberculosis. Kind of assay: Minimum inhibitory concentration against resistant Mycobacterium tuberculosis clinical isolates; N=9; range=4-8.
The subject of assay [5] is Mycobacterium tuberculosis. In words: Minimum inhibitory concentration against resistant Mycobacterium tuberculosis clinical isolates; N=9; Range 2-4.
Assay [6] relates to Mycobacterium tuberculosis. In words: Minimum inhibitory concentration against resistant Mycobacterium tuberculosis clinical isolates; N=9; range=8-16.

Molecules are shown by their SMILES. ≈ marks a conversion by molar mass, not a printed value. Where only a bound is given, the exact number is not on record here.

For the molecule `CO[C@H]1/C=C/O[C@@]2(C)Oc3c(C)c(O)c4c(O)c(c(/C=N/N5CCN(C)CC5)c(O)c4c3C2=O)NC(=O)/C(C)=C\C=C\[C@H](C)[C@H](O)[C@@H](C)[C@@H](O)[C@@H](C)[C@H](OC(C)=O)[C@@H]1C` [RIFAMPIN], the minimum inhibitory concentration (MIC) in assay [1] was found to be 16 µg/mL (≈ 19.4 µM). Consider `O=C(CN(/N=C/c1ccccc1Cl)C(=O)c1ccncc1)N1CCN(c2cccc(Cl)c2Cl)CC1`, for which the MIC in assay [2] is over 16 µg/mL. The molecule `O=C(CN(/N=C/c1ccc(Cl)cc1)C(=O)c1ccncc1)N1CCN(c2ccc([N+](=O)[O-])cc2)CC1` yielded a minimal inhibitory concentration (MIC) in assay [2] of over 16 µg/mL. The same measure, in the same setting: for `O=C(CN(/N=C/c1ccccc1Cl)C(=O)c1ccncc1)N1CCN(c2ccc([N+](=O)[O-])cc2)CC1` the value was over 16 µg/mL. Turning to `O=C(CN(/N=C/c1ccccc1Cl)C(=O)c1ccncc1)N1CCN(c2ccc(F)cc2)CC1`, the minimal inhibitory concentration (MIC) in assay [2] was over 16 µg/mL.

`Cc1cccc(N2CCN(C(=O)CN(/N=C/c3cccc(Cl)c3)C(=O)c3ccncc3)CC2)c1`: the minimum inhibitory concentration (MIC) in assay [2] is over 16 µg/mL.

In assay [2], `COc1ccccc1N1CCN(C(=O)CN(/N=C/c2ccccc2Cl)C(=O)c2ccncc2)CC1` came in with an MIC of over 16 µg/mL. In assay [2], `O=C(CN(/N=C/c1ccc(Cl)cc1Cl)C(=O)c1ccncc1)N1CCN(c2ccc([N+](=O)[O-])cc2)CC1` showed a minimum inhibitory concentration (MIC) of over 16 µg/mL. In assay [2], `O=C(CN(/N=C/c1cccc(Cl)c1)C(=O)c1ccncc1)N1CCN(c2ccc([N+](=O)[O-])cc2)CC1` displayed a minimal inhibitory concentration (MIC) of over 16 µg/mL. In assay [2], `COc1ccccc1N1CCN(C(=O)CN(/N=C/c2ccc(Cl)cc2Cl)C(=O)c2ccncc2)CC1` showed an MIC of over 16 µg/mL.

Consider `O=C(CN(/N=C/c1ccc(Cl)cc1Cl)C(=O)c1ccncc1)N1CCN(c2cccc(C(F)(F)F)c2)CC1`, for which the MIC in assay [2] is over 16 µg/mL. For `NNC(=O)c1ccncc1` [ISONIAZID], the MIC in assay [3] stood at 16 µg/mL (≈ 117 µM). For the molecule `O=C(CN(/N=C/c1ccccc1Cl)C(=O)c1ccncc1)N1CCN(c2ccc(Cl)cc2)CC1`, the MIC in assay [2] was over 16 µg/mL. In turn, `COc1ccccc1N1CCN(C(=O)CN(/N=C/c2cccc(Cl)c2)C(=O)c2ccncc2)CC1` came in with an MIC in assay [2] of over 16 µg/mL. Turning to `O=C(CN(/N=C/c1cccc(Cl)c1)C(=O)c1ccncc1)N1CCN(Cc2ccc3c(c2)OCO3)CC1`, in assay [4], the MIC was 8 µg/mL (≈ 15.4 µM). In assay [2], `O=C(CN(/N=C/c1cccc(Cl)c1)C(=O)c1ccncc1)N1CCN(c2ccc(Cl)cc2)CC1` returned an MIC of over 16 µg/mL. Same read-out and setting: in the case of `Cc1cccc(N2CCN(C(=O)CN(/N=C/c3ccccc3Cl)C(=O)c3ccncc3)CC2)c1` it was over 16 µg/mL. Still for that read-out and setting: for `O=C(CN(/N=C/c1ccc(Cl)cc1)C(=O)c1ccncc1)N1CCN(c2ccc(F)cc2)CC1` the value was over 16 µg/mL; for `COc1ccccc1N1CCN(C(=O)CN(/N=C/c2ccc(Cl)cc2)C(=O)c2ccncc2)CC1`, over 16 µg/mL; for `O=C(CN(/N=C/c1ccccc1Cl)C(=O)c1ccncc1)N1CCN(c2ccccc2)CC1`, over 16 µg/mL. In assay [5], `O=C(CN(/N=C/c1ccc(Cl)cc1Cl)C(=O)c1ccncc1)N1CCN(Cc2ccc3c(c2)OCO3)CC1` displayed a minimum inhibitory concentration (MIC) of 4 µg/mL (≈ 7.21 µM). `Cc1cccc(N2CCN(C(=O)CN(/N=C/c3ccc(Cl)cc3Cl)C(=O)c3ccncc3)CC2)c1` showed an MIC in assay [2] of over 16 µg/mL. In assay [2], `O=C(CN(/N=C/c1ccc(Cl)cc1)C(=O)c1ccncc1)N1CCN(c2ccc(Cl)cc2)CC1` gave an MIC of over 16 µg/mL. In turn, `O=C(CN(/N=C/c1ccc(Cl)cc1Cl)C(=O)c1ccncc1)N1CCN(c2ccc(Cl)cc2)CC1` yielded an MIC in assay [2] of 16 µg/mL (≈ 30.1 µM). Regarding `O=C(CN(/N=C/c1ccc(Cl)cc1)C(=O)c1ccncc1)N1CCN(Cc2ccc3c(c2)OCO3)CC1`, the MIC in assay [4] came to 8 µg/mL (≈ 15.4 µM). `O=C(CN(/N=C/c1cccc(Cl)c1)C(=O)c1ccncc1)N1CCN(c2ccccc2)CC1`: the minimum inhibitory concentration (MIC) in assay [2] is over 16 µg/mL. In assay [6], `O=C(CN(/N=C/c1ccccc1Cl)C(=O)c1ccncc1)N1CCN(Cc2ccc3c(c2)OCO3)CC1` registered an MIC of 16 µg/mL (≈ 30.8 µM). In the case of `O=C(CN(/N=C/c1ccc(Cl)cc1Cl)C(=O)c1ccncc1)N1CCN(c2ccccc2)CC1`, the minimal inhibitory concentration (MIC) in assay [2] is over 16 µg/mL. Still for that read-out and setting: in the case of `O=C(CN(/N=C/c1ccc(Cl)cc1Cl)C(=O)c1ccncc1)N1CCN(c2ccc(F)cc2)CC1` it was over 16 µg/mL. `O=C(CN(/N=C/c1ccc(Cl)cc1Cl)C(=O)c1ccncc1)N1CCN(c2cccc(Cl)c2)CC1` yielded an MIC in assay [2] of over 16 µg/mL. Regarding `O=C(CN(/N=C/c1cccc(Cl)c1)C(=O)c1ccncc1)N1CCN(c2ccc(F)cc2)CC1`, in assay [2], the minimum inhibitory concentration (MIC) is over 16 µg/mL.

Molecule `O=C(CN(/N=C/c1cccc(Cl)c1)C(=O)c1ccncc1)N1CCN(c2cccc(Cl)c2)CC1` yielded an MIC in assay [2] of over 16 µg/mL.

`O=C(CN(/N=C/c1ccccc1Cl)C(=O)c1ccncc1)N1CCN(c2cccc(Cl)c2)CC1` had an MIC in assay [2] of over 16 µg/mL.

In assay [2], `O=C(CN(/N=C/c1ccccc1Cl)C(=O)c1ccncc1)N1CCN(c2cccc(C(F)(F)F)c2)CC1` came in with an MIC of over 16 µg/mL.

As a reminder, the MIC is the lowest concentration found to suppress growth. A high value points to a less susceptible organism.
